Measurements: patent US8067447B2, “Modulators of glucocorticoid receptor, AP-1, and/or NF-κB activity and use thereof” (Bristol-Myers Squibb Company, priority 2006, dated 2011)
Where two headings read alike, the source gives them in different places.

Experiments:
[1] = target: T1, human glucocorticoid receptor (Homo sapiens, UniProt P04150); experiment: Glucocorticoid Receptor Binding Assay (I), fluorescence polarization competitor kit (Fluormone GS Red); details: purified human recombinant full-length GR 2 nM, 1 nM Fluormone GS Red, FP; read-out: GR (Ki, nM) (GR Binding Assay (I))
T1 construct: purified human recombinant full-length glucocorticoid receptor (2 nM); purchased Invitrogen Part #2893
T1 sequence (P04150 1-777): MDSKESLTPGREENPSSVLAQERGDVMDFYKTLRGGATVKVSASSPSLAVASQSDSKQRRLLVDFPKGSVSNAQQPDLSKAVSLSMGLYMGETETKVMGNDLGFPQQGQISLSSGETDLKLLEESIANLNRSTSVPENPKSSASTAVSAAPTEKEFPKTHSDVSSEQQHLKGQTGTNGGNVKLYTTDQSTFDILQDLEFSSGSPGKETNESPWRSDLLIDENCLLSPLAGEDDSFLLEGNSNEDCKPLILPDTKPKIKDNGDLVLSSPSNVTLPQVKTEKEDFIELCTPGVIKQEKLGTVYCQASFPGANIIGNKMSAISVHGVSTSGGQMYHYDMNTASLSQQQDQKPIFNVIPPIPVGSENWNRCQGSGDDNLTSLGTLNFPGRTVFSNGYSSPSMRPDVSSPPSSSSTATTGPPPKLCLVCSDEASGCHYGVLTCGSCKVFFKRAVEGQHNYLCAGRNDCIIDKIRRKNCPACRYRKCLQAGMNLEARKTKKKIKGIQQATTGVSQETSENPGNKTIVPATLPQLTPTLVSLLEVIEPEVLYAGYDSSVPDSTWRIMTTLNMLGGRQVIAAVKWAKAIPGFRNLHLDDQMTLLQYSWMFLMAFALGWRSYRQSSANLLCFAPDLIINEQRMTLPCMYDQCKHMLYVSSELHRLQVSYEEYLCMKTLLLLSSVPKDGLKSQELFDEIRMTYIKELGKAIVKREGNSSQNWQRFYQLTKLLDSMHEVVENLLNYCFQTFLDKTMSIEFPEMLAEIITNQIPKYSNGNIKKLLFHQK
Description: Briefly, purified human recombinant full-length glucocorticoid receptor (2 nM) was mixed with fluorescently labeled glucocorticoid (1 nM Fluormone GS Red) in the presence or absence of test compound. After two hour incubation at room temperature in the dark, the fluorescence polarization (FP) of the samples was measured. […] Test compounds were analyzed in the concentration range from 8.5E-05 μM to 5 μM.

[2] = system: AP-1 induced transcriptional activity; experiment: Cellular Transrepressional Assay (AP-1 luciferase reporter in A549 cells, PMA-activated); type: cell-based; details: A549 cells with 7x AP-1 luciferase reporter, 10 ng/ml PMA, read-out: AP-1 (EC50, nM) (Cellular Transrepression Assay)
Description: To measure the ability of test molecules to inhibit AP-1 induced transcriptional activity an A549 cell was utilized which was stably transfected with a plasmid containing 7× AP-1 DNA binding sites (pAP-1-Luc plasmid, Stratagene Co. La Jolla, Calif.) followed by the gene for luciferase. Cells were activated with 10 ng/ml of […] (PMA) plus or minus test molecules for 7 hours. After 7 hours a luciferase reagent was added to measure luciferase enzymatic activity in the cell. After a 10 minute incubation of luciferase reagent with cells, luminescence was measured in a TopCount luminescence counter. Repression of AP-1 activity was calculated as the percentage decrease in the signal induced by PMA alone. Test molecules were analyzed in the concentration range from 0.1 nM to 40 μM. EC50s were determined by using standard curve fitting methods such as Excel fit (Microsoft Co.).

Work on `CC(C)(Cc1ccc2c(cnn2-c2ccc(F)cc2)c1)C(=O)Nc1nccs1` [Example 31, 3-(1-(4-Fluorophenyl)-1H-indazol-5-yl)-2,2-dimethyl-N-(thiazol-2-yl)propanamide] yielded a Ki [1] of 98 nM and an EC50 ([2]; Homo sapiens, A549, 7 h) greater than 10000 nM.

`CCc1nnc(NC(=O)C(C)(C)C(c2ccccc2)c2ccc3c(cnn3-c3ccc(F)cc3)c2)s1` (stereo not shown) [Example 20, N-(5-ethyl-1,3,4-thiadiazol-2-yl)-3-(1-(4-fluorophenyl)-1H-indazol-5-yl)-2,2-dimethyl-3-phenylpropanamide] showed a Ki [1] of 10 nM and an EC50 ([2]; Homo sapiens, A549, 7 h) greater than 10000 nM.

`CC(C)(C(=O)Nc1nncs1)C(c1ccccc1)c1ccc2nn(Cc3ccccc3)cc2c1` (stereo not shown) [Example 73, 3-(2-benzyl-2H-indazol-5-yl)-2,2-dimethyl-3-phenyl-N-(1,3,4-thiadiazol-2-yl)propanamide] was tested, and the Ki [1] was 46 nM and the EC50 ([2]; Homo sapiens, A549, 7 h) was greater than 10000 nM.

In the case of `CC(C)(C(=O)Nc1nncs1)C(c1ccccc1)c1ccc2c(cnn2CCc2ccccc2)c1` (stereo not shown) [Example 74, 2,2-dimethyl-3-(1-phenethyl-1H-indazol-5-yl)-3-phenyl-N-(1,3,4-thiadiazol-2-yl)propanamide], the Ki [1] is reported as 152 nM and the EC50 ([2]; Homo sapiens, A549, 7 h) is reported as greater than 10000 nM.

In the case of `O=C(CC(c1ccccc1)c1ccc2c(cnn2-c2ccc(F)cc2)c1)Nc1nncs1` (single isomer, unassigned) [136-enant B, 3-(1-(4-Fluorophenyl)-1H-indazol-5-yl)-3-phenyl-N-(1,3,4-thiadiazol-2-yl)propanamide], the Ki [1] is reported as 6 nM and the EC50 ([2]; 7 hours) is reported as 13 nM.

`CC(C)(C(=O)Nc1nccs1)C(c1ccccc1)c1ccc2[nH]ccc2c1` (stereo not shown) [Example 107, 3-(1H-Indol-5-yl)-2,2-dimethyl-3-phenyl-N-(thiazol-2-yl)propanamide] showed a Ki [1] of 7.8 nM and an EC50 ([2]; Homo sapiens, A549, 7 h) of 193 nM.

`Cc1ccc(-c2cc3cc(C(c4ccccc4)C(C)(C)C(=O)Nc4nccs4)ccc3[nH]2)cc1` (stereo not shown) [Example 119, 2,2-dimethyl-3-phenyl-N-(thiazol-2-yl)-3-(2-p-tolyl-1H-indol-5-yl)propanamide] was tested, and the Ki [1] was 146 nM and the EC50 ([2]; Homo sapiens, A549, 7 h) was 2130 nM.

`CC(C)(C(=O)Nc1nccs1)C(c1ccccc1)c1ccc2[nH]cc(C#N)c2c1` (stereo not shown) [Example 108, 3-(3-Cyano-1H-indol-5-yl)-2,2-dimethyl-3-phenyl-N-(thiazol-2-yl)propanamide] showed a Ki [1] of 6.6 nM and an EC50 ([2]; Homo sapiens, A549, 7 h) of 1200 nM.

With `CC(C)(C(=O)Nc1nncs1)C(c1ccccc1)c1ccc2nn(CCCCO)cc2c1` (stereo not shown) [Example 77, 3-(2-(4-hydroxybutyl)-2H-indazol-5-yl)-2,2-dimethyl-3-phenyl-N-(1,3,4-thiadiazol-2-yl)propanamide] the Ki [1] was 23 nM and the EC50 ([2]; Homo sapiens, A549, 7 h) was 951 nM.

With `CC(C)(C(=O)NC1CCCC1)C(c1ccccc1)c1ccc2c(cnn2-c2ccc(F)cc2)c1` (stereo not shown) [Example 3, N-cyclopentyl-3-(1-(4-fluorophenyl)-1H-indazol-5-yl)-2,2-dimethyl-3-phenylpropanamide] the Ki [1] was 6.9 nM and the EC50 ([2]; Homo sapiens, A549, 7 h) was 199 nM.

`CC(C)(C(=O)Nc1nnc(C(F)(F)F)s1)C(c1ccccc1)c1ccc2c(cnn2-c2ccc(F)cc2)c1` (stereo not shown) [Example 25, 3-(1-(4-fluorophenyl)-1H-indazol-5-yl)-2,2-dimethyl-3-phenyl-N-(5-(trifluoromethyl)-1,3,4-thiadiazol-2-yl)propanamide] gave a Ki [1] of 19 nM and an EC50 ([2]; Homo sapiens, A549, 7 h) greater than 10000 nM.

Compound `CC(C)(C(=O)Nc1nncs1)C(c1ccccc1)c1ccc2c(cnn2Cc2ccccc2)c1` (stereo not shown) [Example 72, 3-(1-benzyl-1H-indazol-5-yl)-2,2-dimethyl-3-phenyl-N-(1,3,4-thiadiazol-2-yl)propanamide] has a Ki [1] of 14 nM and an EC50 ([2]; Homo sapiens, A549, 7 h) of 1930 nM.

In the case of `CC(C)(C(=O)Nc1nc[nH]n1)C(c1ccccc1)c1ccc2c(cnn2-c2ccc(F)cc2)c1` (stereo not shown) [Example 13, 3-(1-(4-fluorophenyl)-1H-indazol-5-yl)-2,2-dimethyl-3-phenyl-N-(1H-1,2,4-triazol-3-yl)propanamide], the Ki [1] is reported as 11 nM and the EC50 ([2]; Homo sapiens, A549, 7 h) is reported as 17 nM.

Work on `CC(C)n1ncc2cc(C(c3ccccc3)C(C)(C)C(=O)Nc3nccs3)ccc21` (stereo not shown) [Example 61, 3-(1-isopropyl-1H-indazol-5-yl)-2,2-dimethyl-3-phenyl-N-(thiazol-2-yl)propanamide] yielded a Ki [1] of 14 nM and an EC50 ([2]; Homo sapiens, A549, 7 h) of 158 nM.

In the case of `CC(C)(C)CNC(=O)C(C)(C)C(c1ccccc1)c1ccc2c(cnn2-c2ccc(F)cc2)c1` (stereo not shown) [Example 7, 3-(1-(4-fluorophenyl)-1H-indazol-5-yl)-2,2-dimethyl-N-neopentyl-3-phenylpropanamide], the Ki [1] is reported as 2.9 nM and the EC50 ([2]; Homo sapiens, A549, 7 h) is reported as 904 nM.

`CC(C)(C(=O)NCCC(F)(F)F)C(c1ccccc1)c1ccc2c(cnn2-c2ccc(F)cc2)c1` (stereo not shown) [Example 9, 3-(1-(4-fluorophenyl)-1H-indazol-5-yl)-2,2-dimethyl-3-phenyl-N-(3,3,3-trifluoropropyl)-propanamide] was tested, and the Ki [1] was 3.7 nM and the EC50 ([2]; Homo sapiens, A549, 7 h) was 3060 nM.

Compound `CC(C)(C(=O)Nc1ncc(Cl)s1)C(c1ccccc1)c1ccc2c(cnn2-c2ccc(F)cc2)c1` (stereo not shown) [Example 26, N-(5-chlorothiazol-2-yl)-3-(1-(4-fluorophenyl)-1H-indazol-5-yl)-2,2-dimethyl-3-phenylpropanamide] has a Ki [1] of 16 nM and an EC50 ([2]; Homo sapiens, A549, 7 h) of 404 nM.

Work on `CC(C)CCn1cc2cc(C(c3ccccc3)C(C)(C)C(=O)Nc3nncs3)ccc2n1` (stereo not shown) [Example 67, 3-(2-isopentyl-2H-indazol-5-yl)-2,2-dimethyl-3-phenyl-N-(1,3,4-thiadiazol-2-yl)propanamide] yielded a Ki [1] of 25 nM and an EC50 ([2]; Homo sapiens, A549, 7 h) of 532 nM.

Compound `CC(C)(C(=O)NS(C)(=O)=O)C(c1ccccc1)c1ccc2c(cnn2-c2ccc(F)cc2)c1` (stereo not shown) [Example 5, 3-(1-(4-fluorophenyl)-1H-indazol-5-yl)-2,2-dimethyl-N-(methylsulfonyl)-3-phenylpropanamide] has a Ki [1] of 7 nM and an EC50 ([2]; Homo sapiens, A549, 7 h) of 1330 nM.

With `Cc1nc(NC(=O)C(C)(C)C(c2ccccc2)c2ccc3c(cnn3-c3ccc(F)cc3)c2)sc1C` (stereo not shown) [Example 24, N-(4,5-dimethylthiazol-2-yl)-3-(1-(4-fluorophenyl)-1H-indazol-5-yl)-2,2-dimethyl-3-phenylpropanamide] the Ki [1] was 28 nM and the EC50 ([2]; Homo sapiens, A549, 7 h) was greater than 10000 nM.

In the case of `CC(C)(C(=O)Nc1n[nH]cc1C#N)C(c1ccccc1)c1ccc2c(cnn2-c2ccc(F)cc2)c1` (stereo not shown) [Example 16, N-(4-cyano-1H-pyrazol-3-yl)-3-(1-(4-fluorophenyl)-1H-indazol-5-yl)-2,2-dimethyl-3-phenylpropanamide], the Ki [1] is reported as 163 nM and the EC50 ([2]; Homo sapiens, A549, 7 h) is reported as greater than 10000 nM.

Compound `CC(C)(C(=O)Nc1nncs1)C(c1ccccc1)c1ccc2c(cnn2-c2ccc(Br)cc2)c1` (stereo not shown) [Example 91, 3-(1-(4-bromophenyl)-1H-indazol-5-yl)-2,2-dimethyl-3-phenyl-N-(1,3,4-thiadiazol-2-yl)propanamide] has a Ki [1] of 29 nM and an EC50 ([2]; Homo sapiens, A549, 7 h) of 956 nM.

`CC(C)(C(=O)Nc1nccs1)C(c1ccccc1)c1ccc2c(ccn2-c2ccc(F)cc2)c1` (stereo not shown) [Example 110, 3-(1-(4-Fluorophenyl)-1H-indol-5-yl)-2,2-dimethyl-3-phenyl-N-(thiazol-2-yl)propanamide] was tested, and the Ki [1] was 13 nM and the EC50 ([2]; Homo sapiens, A549, 7 h) was 220 nM.

Compound `CCOC(=O)c1nnc(NC(=O)C(C)(C)C(c2ccccc2)c2ccc3c(cnn3-c3ccc(F)cc3)c2)s1` (stereo not shown) [Example 10, ethyl 5-(3-(1-(4-fluorophenyl)-1H-indazol-5-yl)-2,2-dimethyl-3-phenylprop-anamido)-1,3,4-thiadiazole-2-carboxylate] has a Ki [1] of 227 nM and an EC50 ([2]; Homo sapiens, A549, 7 h) of 3520 nM.

Work on `CC(C)(C(=O)Nc1nc2ccccc2s1)C(c1ccccc1)c1ccc2c(cnn2-c2ccc(F)cc2)c1` (stereo not shown) [Example 23, N-(benzyl[d]thiazol-2-yl)-3-(1-(4-fluorophenyl)-1H-indazol-5-yl)-2,2-dimethyl-3-phenylpropanamide] yielded a Ki [1] of 60 nM and an EC50 ([2]; Homo sapiens, A549, 7 h) greater than 10000 nM.

For `CC(C)(C(=O)NS(=O)(=O)C(F)(F)F)C(c1ccccc1)c1ccc2c(cnn2-c2ccc(F)cc2)c1` (stereo not shown) [Example 6, 3-(1-(4-fluorophenyl)-1H-indazol-5-yl)-2,2-dimethyl-3-phenyl-N-(trifluoromethylsulfonyl) propanamide], the Ki [1] was 77 nM and the EC50 ([2]; Homo sapiens, A549, 7 h) was greater than 10000 nM.
